Measurements: PubChem BioAssay AID2060495 (Molecular Pharmacology Branch, DTP, NCI, 2025)
Several values for one entry are separate records, joined by “and”; a condition that tells them apart may be missing. Equal values may be shown once. Blank lines part the entries; values can stand above or below the compound they belong to.

Test system: 521955-158-R2-J5-PDC complex spheroid viability
Assay: Anticancer human tumor 521955-158-R2-J5-PDC patient-derived pancreatic carcinoma cell line growth inhibition [GQUAD]
Conditions: for viability, T/C: stronger effect = lower value
Description: DNA G-quadruplex Stabilizer Agents in Combinations in Complex Spheroids
A high-throughput screen of multi-cell type tumor spheroids was designed to identify active combinations of DNA G-quadruplex stabilizer agents and targeted small molecules. Complex spheroids include a stromal component modeled by human endothelial cells (HUVEC) and fibroblasts modeled by human mesenchymal stem cells (MSCs). The concentration ranges selected for each drug and investigational agent were based upon clinically achievable concentrations if the clinical Cmax of the agent was known.
Compounds. The drugs and investigational agents: pidnarulex (CX-5461; NSC782164), APTO-253 (NSC789042), BRACO-19 (NSC847499), peposertib (NSC802822), ceralasertib (NSC780249), elimusertib (NSC800525), camonsertib (NSC841442), AZD-1390 (NSC803789), olaparib (NSC753686), talazoparib (NSC767125), ART-558 (NSC835418), sotorasib (NSC818433), MRTX-1133 (NSC836407), SN-38 (NSC673596), topotecan (NSC609699), etoposide (NSC141540), doxorubicin (NSC123127), gemcitabine (NSC613327), 5-fluorouracil (NSC19893), paclitaxel (NSC125973), vemurafenib (NSC761431), panobinostat (NSC761190), R-306465 (JNJ-16241199; NSC773264), adavosertib (NSC754352), TP-3654 (NSC805149), carboplatin (NSC241240), KSQ-4279 (NSC840948), and staurosporine (NSC755774) were obtained from the National Cancer Institute (NCI) Developmental Therapeutics Program Chemical Repository (34). The FDA-approved anticancer drug set is available from the NCI Developmental Therapeutics Program. […] The stock solutions were prepared in dimethyl sulfoxide (DMSO, Sigma-Aldrich, St. Louis, MO, cat. D2650) at 800-fold the tested concentration and stored at -70 degrees C prior to their use. All drugs and investigational agents were tested over a range starting from a high concentration at or near the clinical Cmax and decreasing in half-log increments. If the clinical Cmax for an agent had not been determined, the highest concentration tested was 10 microM.
2.3 Cell Culture. All cells were maintained in an incubator at 37 degrees C and 5% CO2 with 95% humidity. The PDC lines were cultured according to standard operating procedures established by the NCI PDMR. All PDCs were thawed and cultured in Matrigel-coated flasks prepared with a working solution of 1X Ham's F-12 nutrient mix, without supplementation (Invitrogen, cat. 11765054), 100 U/mL penicillin-streptomycin (Invitrogen, cat. 15140122), and 2.5% Matrigel (Corning Inc., cat. 354248) for the first three passages. The 857933-349-R-J2-PDC line was cultured in 6C/Colon 1B media, which includes advanced DMEM/F-12 (Thermo Fisher Scientific, cat. 12634028), 10 mM HEPES (Thermo Fisher Scientific, cat. 15630080), 1X GlutaMAX supplement (Thermo Fisher Scientific, cat. 35050061), 0.1 mg/mL primocin (InvivoGen, cat. ant-pm-2), 10% defined fetal bovine serum, heat inactivated (HyClone Laboratories Inc., cat. SH30070.03HI), 50% L-WRN conditioned media (ATCC, cat. CRL-3276), 1.25 mM N-Acetyl-L-cysteine (Sigma-Aldrich, cat. A9165), 10 mM nicotinamide (Sigma-Aldrich, cat. N0636), 1X B-27 supplement (Thermo Fisher Scientific, cat. 17504044), 1X N-2 supplement (Thermo Fisher Scientific, cat. 17502048), 10 microM Y-27632 dihydrochloride (Tocris Bioscience, cat. 1254), and 50 ng/mL human EGF recombinant protein (Thermo Fisher Scientific, cat. PHG0311). The 485176-168-R4-J1-PDC line was cultured in Panc media, which includes all 6C/Colon 1B media components plus 100 ng/mL human FGF-10 (Thermo Fisher Scientific, cat. 100-26), 500 nM SB-431542 (Selleckchem, cat. S1067), and gastrin (Tocris, cat. 3006).
[…]

[1] = curve of first compound, second compound 0.0316 µM
[2] = curve of first compound, second compound 0.1 µM
[3] = curve of first compound, second compound 0.316 µM
[4] = curve of first compound, second compound 1 µM
[5] = curve of first compound, second compound 3.16 µM
[6] = curve of first compound, second compound 10 µM
[7] = second compound 0.0316 µM, first compound 0.0316 µM
[8] = second compound 0.0316 µM, first compound 0.1 µM
[9] = second compound 0.0316 µM, first compound 0.316 µM
[10] = second compound 0.0316 µM, first compound 1 µM
[11] = second compound 0.0316 µM, first compound 3.16 µM
[12] = second compound 0.0316 µM, first compound 10 µM
[13] = second compound 0.1 µM, first compound 0.0316 µM
[14] = second compound 0.1 µM, first compound 0.1 µM
[15] = second compound 0.1 µM, first compound 0.316 µM
[16] = second compound 0.1 µM, first compound 1 µM
[17] = second compound 0.1 µM, first compound 3.16 µM
[18] = second compound 0.1 µM, first compound 10 µM
[19] = second compound 0.316 µM, first compound 0.0316 µM
[20] = second compound 0.316 µM, first compound 0.1 µM
[21] = second compound 0.316 µM, first compound 0.316 µM
[22] = second compound 0.316 µM, first compound 1 µM
[23] = second compound 0.316 µM, first compound 3.16 µM
[24] = second compound 0.316 µM, first compound 10 µM
[25] = second compound 1 µM, first compound 0.0316 µM
[26] = second compound 1 µM, first compound 0.1 µM
[27] = second compound 1 µM, first compound 0.316 µM
[28] = second compound 1 µM, first compound 1 µM
[29] = second compound 1 µM, first compound 3.16 µM
[30] = second compound 1 µM, first compound 10 µM
[31] = second compound 3.16 µM, first compound 0.0316 µM
[32] = second compound 3.16 µM, first compound 0.1 µM
[33] = second compound 3.16 µM, first compound 0.316 µM
[34] = second compound 3.16 µM, first compound 1 µM
[35] = second compound 3.16 µM, first compound 3.16 µM
[36] = second compound 3.16 µM, first compound 10 µM
[37] = second compound 10 µM, first compound 0.0316 µM
[38] = second compound 10 µM, first compound 0.1 µM
[39] = second compound 10 µM, first compound 0.316 µM
[40] = second compound 10 µM, first compound 1 µM
[41] = second compound 10 µM, first compound 3.16 µM
[42] = second compound 10 µM, first compound 10 µM
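Also: spheroids exposed to agents for one week before reading.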
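For viability, T/C in this document: 100% = DMSO vehicle control viability.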

IC50 (curve of compound): > 10 µM
SMILES: CC(C)n1c(=O)n(C)c2cnc3cc(F)c(-c4ccc(OCCCN5CCCCC5)nc4)cc3c21
viability, T/C (compound 0.0316 µM): 115% (2×) and 100%
viability, T/C (compound 0.1 µM): 96.9% and 107% and 94.7%
viability, T/C (compound 0.316 µM): 114% (2×) and 80.2%
viability, T/C (compound 1 µM): 91.4% and 95.4% and 89.3%
viability, T/C (compound 3.16 µM): 96.3% and 107% and 96.1%
viability, T/C (compound 10 µM): 95.6% and 95.5% and 84.2%

IC50 (curve of compound): 2.85 µM and 2.84 µM and > 10 µM
SMILES: O=c1[nH]cc(F)c(=O)[nH]1
viability, T/C (compound 0.0316 µM): 86.1% and 107% and 116%
viability, T/C (compound 0.1 µM): 86% and 88.3% and 87.4%
viability, T/C (compound 0.316 µM): 89.2% and 109% and 92.6%
viability, T/C (compound 1 µM): 80% and 99% and 101%
viability, T/C (compound 3.16 µM): 47.1% and 45% and 102%
viability, T/C (compound 10 µM): 20.3% and 18.2% and 54.8%

Further lines, the compound ahead of its results:

SMILES: Cc1cccc(N(C)C(=O)C2C(O)CCN2c2nc(C)cc(C(F)(F)F)c2C#N)c1 (stereo not given) + Cc1cnc(CNC(=O)c2c(=O)c3ccc(N4CCCN(C)CC4)nc3n3c2sc2ccccc23)cn1
IC50 [1]: > 10 µM
IC50 [2]: > 10 µM
IC50 [3]: < 0.0316 µM
IC50 [4]: < 0.0316 µM
IC50 [5]: < 0.0316 µM
IC50 [6]: < 0.0316 µM
viability, T/C [7]: 96.8%
viability, T/C [8]: 75%
viability, T/C [9]: 92.8%
viability, T/C [10]: 78.9%
viability, T/C [11]: 101%
viability, T/C [12]: 89.6%
viability, T/C [13]: 54.9%
viability, T/C [14]: 66.2%
viability, T/C [15]: 71.5%
viability, T/C [16]: 62.2%
viability, T/C [17]: 88.7%
viability, T/C [18]: 74.6%
viability, T/C [19]: 43.7%
viability, T/C [20]: 49.9%
viability, T/C [21]: 40.9%
viability, T/C [22]: 43.7%
viability, T/C [23]: 46.5%
viability, T/C [24]: 38.2%
viability, T/C [25]: 23.6%
viability, T/C [26]: 22.5%
viability, T/C [27]: 22.7%
viability, T/C [28]: 24.4%
viability, T/C [29]: 20.9%
viability, T/C [30]: 22.9%
viability, T/C [31]: 19.1%
viability, T/C [32]: 22.3%
viability, T/C [33]: 19.8%
viability, T/C [34]: 22.8%
viability, T/C [35]: 20.6%
viability, T/C [36]: 20.1%
viability, T/C [37]: 20.7%
viability, T/C [38]: 19.2%
viability, T/C [39]: 21.5%
viability, T/C [40]: 20.2%
viability, T/C [41]: 24.7%
viability, T/C [42]: 20.2%

SMILES: C=CC(=O)N1CCN(c2nc(=O)n(-c3c(C)ccnc3C(C)C)c3nc(-c4c(O)cccc4F)c(F)cc23)C(C)C1 (stereo not given) + Cc1cnc(CNC(=O)c2c(=O)c3ccc(N4CCCN(C)CC4)nc3n3c2sc2ccccc23)cn1
IC50 [1]: > 10 µM
IC50 [2]: > 10 µM
IC50 [3]: < 0.0316 µM
IC50 [4]: < 0.0316 µM
IC50 [5]: < 0.0316 µM
IC50 [6]: < 0.0316 µM
viability, T/C [7]: 81%
viability, T/C [8]: 70.8%
viability, T/C [9]: 84.4%
viability, T/C [10]: 79.2%
viability, T/C [11]: 77%
viability, T/C [12]: 72.2%
viability, T/C [13]: 60.3%
viability, T/C [14]: 55.3%
viability, T/C [15]: 56.1%
viability, T/C [16]: 57.3%
viability, T/C [17]: 61.5%
viability, T/C [18]: 52.9%
viability, T/C [19]: 36.6%
viability, T/C [20]: 32.1%
viability, T/C [21]: 33.7%
viability, T/C [22]: 46.9%
viability, T/C [23]: 49.1%
viability, T/C [24]: 32.1%
viability, T/C [25]: 21.5%
viability, T/C [26]: 20.2%
viability, T/C [27]: 19.7%
viability, T/C [28]: 26.2%
viability, T/C [29]: 21.7%
viability, T/C [30]: 19.3%
viability, T/C [31]: 22.8%
viability, T/C [32]: 17.6%
viability, T/C [33]: 19.9%
viability, T/C [34]: 20.5%
viability, T/C [35]: 25%
viability, T/C [36]: 18.4%
viability, T/C [37]: 18.4%
viability, T/C [38]: 18.5%
viability, T/C [39]: 20.9%
viability, T/C [40]: 18%
viability, T/C [41]: 13.7%
viability, T/C [42]: 15.8%

SMILES: CC(C)n1c(=O)n(C)c2cnc3cc(F)c(-c4ccc(OCCCN5CCCCC5)nc4)cc3c21 + Cc1[nH]c2ccc(F)cc2c1-c1nc2c3cccnc3c3ncccc3c2[nH]1
IC50 [1]: > 10 µM
IC50 [2]: > 10 µM
IC50 [3]: > 10 µM
IC50 [4]: > 10 µM
IC50 [5]: > 10 µM
IC50 [6]: > 10 µM
viability, T/C [7]: 116%
viability, T/C [8]: 90.8%
viability, T/C [9]: 109%
viability, T/C [10]: 84.5%
viability, T/C [11]: 101%
viability, T/C [12]: 94.4%
viability, T/C [13]: 94.8%
viability, T/C [14]: 114%
viability, T/C [15]: 97.7%
viability, T/C [16]: 105%
viability, T/C [17]: 115%
viability, T/C [18]: 84.8%
viability, T/C [19]: 105%
viability, T/C [20]: 108%
viability, T/C [21]: 116%
viability, T/C [22]: 104%
viability, T/C [23]: 90.8%
viability, T/C [24]: 83.7%
viability, T/C [25]: 101%
viability, T/C [26]: 113%
viability, T/C [27]: 104%
viability, T/C [28]: 94.9%
viability, T/C [29]: 108%
viability, T/C [30]: 91.1%
viability, T/C [31]: 107%
viability, T/C [32]: 110%
viability, T/C [33]: 109%
viability, T/C [34]: 102%
viability, T/C [35]: 115%
viability, T/C [36]: 94.2%
viability, T/C [37]: 114%
viability, T/C [38]: 92.8%
viability, T/C [39]: 115%
viability, T/C [40]: 110%
viability, T/C [41]: 108%
viability, T/C [42]: 79.1%
